The values that follow come from patent US6376522B1, “4-hydroxyisothiazole compounds” (Ciba Specialty Chemicals Corporation, priority 1999, dated 2002).

≈ marks a conversion by molar mass, not a printed value.

One assay relates to Candida albicans ATCC 10231. Description: Agar incorporation test, MIC. The format is cell-based. The settings on record: ATCC10231, Example 3, according to Example 2, read-out: MIC CA = Candida albicans ATCC 10231. As to the method:
(§1) An agar incorporation test is carried out to determine the MIC (Minimum Inhibitory Concentration [ppm]) of the compound of formula (101): […]
(§2) The test substances are dissolved in Ethanol, and a dilution series of the compound of the formula […] in agar are prepared.
(§3) Anaerobic bacteria and dermatophytes are cultivated on agar-plates, and washes off with Mueller-Hinton bouillon. Aerobic bacteria are cultivated in Mueller-Hinton bouillon overnight. The test germ suspension are diluted with Mueller-Hinton bouillon to a density of McFarland standard 0.5.
(§4) 10 μl of each germ suspension is dropped onto the agar plates containing the test substance, and the plates are then incubated at 36° C. for 2 to 3 days. (Aerobic bacteria are incubated at 36° C. for 48 hours, anaerobic bacteria are incubated at 30° C. for 72 hours). As controls, the bacterial suspensions are applied to agar plates without test substances. In order to exclude the solvent ethanol having an influence on the growth properties, the bacterial suspensions are applied to agar plates containing ethanol, but without test substance.
(§5) After the plates have been incubated, the growth of the bacteria on the test-substance-containing plates is compared with that of the control plates.
As for `Oc1c(-c2ccccc2)nsc1-c1ccccc1` [(102)], the MIC came out at 50 µg/mL (≈ 197 µM).
Still for that read-out and setting: in the case of `Oc1csnc1-c1ccccc1` [(103)] it was 250 µg/mL (≈ 1410 µM).
Same read-out and setting: the result for `Oc1csnc1Cc1ccccc1` [(104)] reads 500 µg/mL (≈ 2610 µM); that for `Cc1snc(-c2ccccc2)c1O` [(105)], 50 µg/mL (≈ 261 µM).
Same read-out and setting: in the case of `CCc1snc(-c2ccccc2)c1O` [(106)] it was 500 µg/mL (≈ 2440 µM); in that of `O=C(c1ccc(F)cc1)c1snc(-c2ccc(F)cc2)c1O` [(108)], 100 µg/mL (≈ 315 µM).

A further assay relates to Staphylococcus aureus ATCC 6538. Description: Agar incorporation test, MIC. The format is cell-based. The settings on record: ATCC6538, Example 3, according to Example 2, read-out: MIC SA = Staphylococcus aureus ATCC 6538. As to the method:
as §1, §2, §3, §4, §5
For the compound `Oc1c(-c2ccccc2)nsc1-c1ccccc1` [(102)], the MIC was 10 µg/mL (≈ 39.5 µM).
`Oc1csnc1-c1ccccc1` [(103)]: the MIC worked out at 50 µg/mL (≈ 282 µM).
The same measure, in the same setting: in the case of `Oc1csnc1Cc1ccccc1` [(104)] it was 50 µg/mL (≈ 261 µM).
For `Cc1snc(-c2ccccc2)c1O` [(105)], the MIC is 50 µg/mL (≈ 261 µM).
Turning to `CCc1snc(-c2ccccc2)c1O` [(106)], the MIC came out at 500 µg/mL (≈ 2440 µM).
Still for that read-out and setting: the result for `Oc1c(-c2ccccc2)nsc1Sc1snc(-c2ccccc2)c1O` [(107)] reads 5 µg/mL (≈ 13 µM).

Staying with this assay, now noted: ATCC6538, read-out: MIC (Minimum Inhibitory Concentration) Staphylococcus aureus ATCC 6538.
For the compound `Oc1c(-c2ccccc2)nsc1-c1ccccc1` [(101), 3,5-diphenyl-4-hydroxyisothiazole], the MIC turned out to be 5 µg/mL (≈ 19.7 µM).

For the next assay, the system named is Staphylococcus hominis DSM 20330. Description: Agar incorporation test, MIC. The class given is cell-based. The settings on record: DSM20330, Table 1, 36° C., read-out: MIC (Minimum Inhibitory Concentration) Staphylococcus hominis DSM 20330. The procedure: as §1, §2, §3, §4, §5
For the compound `Oc1c(-c2ccccc2)nsc1-c1ccccc1` [(101), 3,5-diphenyl-4-hydroxyisothiazole], the MIC amounted to 50 µg/mL (≈ 197 µM).

Another assay relates to Escherichia coli NCTC 8196. Description: Agar incorporation test, MIC. The class given is cell-based. The settings on record: NCTC8196, Example 3, according to Example 2, read-out: MIC EC = Escherichia coli NCTC 8196. The procedure:
as §1, §2, §3, §4, §5
For the compound `Oc1c(-c2ccccc2)nsc1-c1ccccc1` [(102)], the MIC worked out at 5 µg/mL (≈ 19.7 µM).
On the same count and under the same terms, the result for `Oc1csnc1-c1ccccc1` [(103)] reads 250 µg/mL (≈ 1410 µM); that for `Oc1csnc1Cc1ccccc1` [(104)], 250 µg/mL (≈ 1310 µM).
The same measure, in the same setting: the result for `Cc1snc(-c2ccccc2)c1O` [(105)] reads 50 µg/mL (≈ 261 µM); that for `CCc1snc(-c2ccccc2)c1O` [(106)], 500 µg/mL (≈ 2440 µM).

The subject of the next assay is Corynebacterium xerosis ATCC 373. Description: Agar incorporation test, MIC. The format is cell-based. The settings on record: ATCC373, Table 1, 36° C., read-out: MIC (Minimum Inhibitory Concentration) Corynebacterium xerosis ATCC 373. As to the method: as §1, §2, §3, §4, §5
Regarding `Oc1c(-c2ccccc2)nsc1-c1ccccc1` [(101), 3,5-diphenyl-4-hydroxyisothiazole], the MIC turned out to be 5 µg/mL (≈ 19.7 µM).

The subject of another assay is Staphylococcus hominis DSM 20328. Description: Agar incorporation test, MIC. The settings on record: DSM20328, Example 3, according to Example 2, read-out: MIC SH = Staphylococcus hominis DSM 20328. The class given is cell-based. As to the method:
as §1, §2, §3, §4, §5
Regarding `Oc1c(-c2ccccc2)nsc1-c1ccccc1` [(102)], the MIC was 50 µg/mL (≈ 197 µM).
Same read-out and setting: the result for `CCc1snc(-c2ccccc2)c1O` [(106)] reads 500 µg/mL (≈ 2440 µM); that for `Oc1c(-c2ccccc2)nsc1Sc1snc(-c2ccccc2)c1O` [(107)], 5 µg/mL (≈ 13 µM).
On to `Oc1c(-c2ccc(F)cc2)nsc1Sc1snc(-c2ccc(F)cc2)c1O` [(109)], for which the MIC stood at 2 µg/mL (≈ 4.76 µM).

A further assay relates to Aspergillus niger ATCC 6275. Description: Agar incorporation test, MIC. The format is cell-based. The settings on record: ATCC6275, Example 3, according to Example 2. The procedure: as §1, §2, §3, §4, §5
`Oc1c(-c2ccccc2)nsc1-c1ccccc1` [(102)] came in with an MIC of 13 µg/mL (≈ 51.3 µM).
Same read-out and setting: in the case of `Oc1csnc1-c1ccccc1` [(103)] it was 100 µg/mL (≈ 564 µM); in that of `Oc1csnc1Cc1ccccc1` [(104)], 500 µg/mL (≈ 2610 µM).
Same read-out and setting: in the case of `Cc1snc(-c2ccccc2)c1O` [(105)] it was 10 µg/mL (≈ 52.3 µM); in that of `CCc1snc(-c2ccccc2)c1O` [(106)], 100 µg/mL (≈ 487 µM).
